Series [1] in a line: Solubility of compound in PBS at pH 7.4 at 300 uM after 24 hrs by HPLC-UV analysis. The format is physicochemical.
Series [2] deals with LAPC4. The experiment in a line: Antiproliferative activity against human LAPC4 cells assessed as reduction in cell viability at 1 to 5 uM after 72 hrs by MTS assay. The format is functional, cell-based. As to conditions: dose 1-5 µM.
In series [3] the test system is T47D. As to the kind of experiment: Antiproliferative activity against human T47D cells assessed as reduction in cell viability at 1 to 5 uM after 72 hrs by MTS assay. The format is functional, cell-based. As to conditions: dose 1-5 µM.
Series [4] concerns MCF7. As to the kind of experiment: Antiproliferative activity against human MCF7 cells assessed as reduction in cell viability at 1 to 5 uM after 72 hrs by MTS assay. Type of series: functional, cell-based. As to conditions: dose 1-5 µM. (Tetrazolium dyes change colour on reduction, which living cells bring about.)
Series [5] relates to PANC-1. As to the kind of experiment: Antiproliferative activity against human PANC-1 cells assessed as reduction in cell viability at 1 to 5 uM after 72 hrs by MTS assay. To be noted: dose 1-5 µM. The format is functional, cell-based.
Series [6] relates to BXPC-3. The experiment in a line: Antiproliferative activity against human BXPC-3 cells assessed as reduction in cell viability at 1 to 5 uM after 72 hrs by MTS assay. The format is functional, cell-based. To be noted: dose 1-5 µM.
The test system of series [7] is Hs 766. As to the kind of experiment: Antiproliferative activity against human Hs 766 cells assessed as reduction in cell viability at 1 to 5 uM after 72 hrs by MTS assay. The format is functional, cell-based. To be noted: dose 1-5 µM.
For series [8], the system named is OVCAR-3. As to the kind of experiment: Antiproliferative activity against human OVCAR-3 cells assessed as reduction in cell viability at 1 to 5 uM after 72 hrs by MTS assay. Type of series: functional, cell-based. To be noted: dose 1-5 µM.
Series [9] concerns Caov-3 cell line. The experiment in a line: Antiproliferative activity against human Caov-3 cells assessed as reduction in cell viability at 1 to 5 uM after 72 hrs by MTS assay. As to conditions: dose 1-5 µM. The format is functional, cell-based.
The subject of series [10] is SK-OV-3. As to the kind of experiment: Antiproliferative activity against human SK-OV-3 cells assessed as reduction in cell viability at 1 to 5 uM after 72 hrs by MTS assay. Type of series: functional, cell-based. As to conditions: dose 1-5 µM.
Series [11] deals with PC-3. As to the kind of experiment: Antiproliferative activity against human PC-3 cells assessed as reduction in cell viability after 72 hrs by MTS assay. Type of series: functional, cell-based. To be noted: PC-3, 72 h.
Series [12] has as its system LAPC4. The experiment in a line: Antiproliferative activity against human LAPC4 cells assessed as reduction in cell viability after 72 hrs by MTS assay. The format is functional, cell-based. As to conditions: LAPC4, 72 h.
For series [13], the system named is LNCaP. As to the kind of experiment: Antiproliferative activity against human LNCaP cells assessed as reduction in cell viability after 72 hrs by MTS assay. The format is functional, cell-based.
Series [14] relates to MCF7. As to the kind of experiment: Antiproliferative activity against human MCF7 cells assessed as reduction in cell viability after 72 hrs by MTS assay. Type of series: functional, cell-based. As to conditions: MCF7, 72 h.
The test system of series [15] is T47D. As to the kind of experiment: Antiproliferative activity against human T47D cells assessed as reduction in cell viability after 72 hrs by MTS assay. Type of series: functional, cell-based.
Series [16] relates to OVCAR-3. As to the kind of experiment: Antiproliferative activity against human OVCAR-3 cells assessed as reduction in cell viability after 72 hrs by MTS assay. The format is functional, cell-based. To be noted: OVCAR-3, 72 h.
Series [17] deals with PANC-1. As to the kind of experiment: Antiproliferative activity against human PANC-1 cells assessed as reduction in cell viability after 72 hrs by MTS assay. The format is functional, cell-based. As to conditions: PANC-1, 72 h.
A short description of series [18]: Stability in human liver s9 fraction assessed as parent compound remaining at 10 uM after 1 hr by LC-MS analysis. The format is ADME, subcellular. As to conditions: read-out: Stabilty.
Series [19] can be described thus: Solubility of compound in PBS at pH 7.4 at pH 7.4 HPLC analysis. The format is physicochemical.
A short description of series [20]: Solubility of compound in PBS at pH 7.4. The format is physicochemical.
Series [21] is described as follows: Solubility of compound in PBS at pH 7.4 by shake flask method. The format is physicochemical.

pIC50: −log10 of the molar value. ≈ marks a conversion by molar mass, not a printed value. Calls of active or inactive are those of the source. No cut-off for these calls is given here. Some results are limits rather than exact numbers.

This note sets out measurements from ChEMBL document CHEMBL4680140, “Minor chemical modifications of the aminosteroid derivative RM-581 lead to major impact on its anticancer activity, metabolic stability and aqueous solubility” (Eur J Med Chem, 2020).

The term solubility denotes the concentration that dissolves in the medium under given conditions. A higher solubility goes with a readily soluble substance. One may read the pIC50 as −log10 of the IC50, conventionally taken in molar units. A word on the thermodynamic solubility: it is solubility found after equilibrating the solid with the medium.

In series [1], `C#C[C@]1(O)CC[C@H]2[C@@H]3CC[C@H]4C[C@H](O)[C@@H](N5CCN(C(=O)[C@@H]6CCCN6C(=O)c6ccc7ccccc7n6)CC5)C[C@]4(C)[C@H]3CC[C@@]21C` gave a solubility at 24 h, 300 µM of 9 µg/mL (≈ 13.8 µM).
For `C#C[C@]1(O)CC[C@H]2[C@@H]3CCc4cc(OC)c(N5CCN(C(=O)[C@@H]6CCCN6C(=O)c6ccc7ccccc7n6)CC5)cc4[C@H]3CC[C@@]21C`, the result in series [2], in series [3], in series [4], in series [5], in [6] and in series [7] was Active. In addition, the outcome in series [8], in [9] and in [10] was Active. Also, the pIC50 is 5.80 in [11]; 6.22 in series [12]; 5.92 in series [13]; 5.59 in [14]; 6.30 in series [15]; 5.30 in series [16]. The pIC50 in [17] is 5.41. Further, in series [18], the remaining at 1 h, 10 µM amounted to 35%. Moreover, the concentration in solution in [1] (solubility at 24 h, 300 µM) came to 2 µg/mL (≈ 3.09 µM).
In the case of `C#CC1(O)CC[C@H]2[C@@H]3CCc4cc(OP(=O)(O)O)c(N5CCN(C(=O)[C@@H]6CCCN6C(=O)c6ccc7ccccc7n6)CC5)cc4[C@H]3CC[C@@]21C` (single isomer, unassigned), the outcome in series [2], in [3], in [4], in series [5], in series [6] and in series [7] was Active. In addition, the outcome in series [8], in series [9] and in series [10] was Active. The pIC50 in series [11] was 5.89; in series [12], 6.52; in series [13] it was 6.22; in series [14], 5.82; in [15], 6.52; in series [16] it was 5.34. In series [17], the pIC50 is 5.59. Besides, the remaining at 1 h, 10 µM in series [18] is 52%. In series [1], this molecule returned a solubility at 24 h, 300 µM of more than 720 µg/mL.
Turning to `CCCSc1ccc2nc(NC(=O)OC)[nH]c2c1` [ALBENDAZOLE], the solubility at 24 h, 300 µM in series [1] is 0.52 µg/mL (≈ 1.96 µM). Further, the solubility in series [19] came out at 0.74 µg/mL (≈ 2.79 µM).
`CC(C)C(=O)Nc1ccc([N+](=O)[O-])c(C(F)(F)F)c1` [FLUTAMIDE]: in series [1], the solubility at 24 h, 300 µM worked out at 19.9 µg/mL (≈ 72 µM). In [20], this molecule gave a solubility of 19.9 µg/mL (≈ 72 µM).
In [1], `COc1ccc(Cl)cc1C(=O)NCCc1ccc(S(=O)(=O)NC(=O)NC2CCCCC2)cc1` [GLYBURIDE] returned a solubility at 24 h, 300 µM of 6.7 µg/mL (≈ 13.6 µM). In series [21], this molecule came in with a solubility (thermodynamic) of 5.6 µg/mL (≈ 11.3 µM).
